Laboratory results published in US20110045101A1, “FUNGICIDAL SUBSTITUTED AZOLES” (E.I. Du Pont De Nemours and Company, priority 2009, published 2011).
Marks after values point to notes of the source that are not given here.

How the values were obtained:
Assay type in all cases: in vivo
Conditions in all cases: 100 = 100% disease control
Alternaria solani = test: Test D: tomato early blight, sprayed the day before inoculation, visual disease rating
Summary of the method: (§1)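 Compounds were dissolved in acetone (3% of final volume), then suspended in 50/50 acetone/water with 250 ppm Trem 014 surfactant and sprayed to run-off on test plants. A 200 ppm suspension equals 500 g/ha. Ratings are at 200 ppm unless flagged as 40 ppm.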

[1] = test system: Erysiphe graminis f. sp. tritici; test: Test J: wheat powdery mildew on wheat seedlings, sprayed the day before inoculation, visual disease rating
Summary of the method: as §1

[2] = test system: Puccinia recondita f. sp. tritici; test: Test I: wheat leaf rust on wheat seedlings, sprayed the day before inoculation, visual disease rating
Summary of the method: as §1

Septoria tritici = test: Test G: wheat leaf blotch on wheat seedlings, sprayed the day before inoculation, visual disease rating
Summary of the method: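 Compounds dissolved in acetone (3% of final volume), then suspended in 50/50 acetone/water with 250 ppm Trem® 014 and sprayed to run-off on seedlings at 200 ppm (≈500 g/ha) or 40 ppm where marked. Inoculation with spores followed next day; visual rating after 48 h saturated at 24° C plus 19 days at 20° C.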

Botrytis cinerea = test: Test C: tomato Botrytis on tomato seedlings, sprayed the day before inoculation, visual disease rating
Summary of the method: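 Tomato seedlings sprayed to run-off with compound suspended in acetone/water with 250 ppm Trem 014 surfactant, at 200 ppm (≈500 g/ha) or 40 ppm where marked, one day before Botrytis cinerea inoculation. Disease rated visually.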

Septoria nodorum = test: Test F: wheat glume blotch on wheat seedlings, sprayed the day before inoculation, visual disease rating
Summary of the method: as §1

[3] = 200 ppm, 0 = no control relative to controls
[4] = 40 ppm (marked *), 0 = no control

Fc1cccc(Cl)c1-c1c(Cl)nc(Br)n1-c1ccc(Cl)cc1 [compound 52]
Test D disease control rating (Alternaria solani; [3]): 100% | Test J disease control rating [1, 3]: 100% | Test I disease control rating [2, 3]: 99% | Test G disease control rating (Septoria tritici; [3]): 97% | Test C disease control rating (Botrytis cinerea; [3]): 84% | Test F disease control rating (Septoria nodorum; [3]): 0%

Cc1nc(Cl)c(-c2c(F)ccc(Cl)c2F)n1-c1ccc(Cl)cc1 [compound 127]
Test D disease control rating (Alternaria solani; [3]): 100% | Test J disease control rating [1, 3]: 100% | Test I disease control rating [2, 3]: 100% | Test G disease control rating (Septoria tritici; [3]): 95% | Test C disease control rating (Botrytis cinerea; [3]): 99% | Test F disease control rating (Septoria nodorum; [3]): 98%

Cc1nc(Cl)c(-c2c(F)cccc2F)n1-c1ccc(F)c(F)c1 [compound 174]
Test D disease control rating (Alternaria solani; 200 ppm, 0 = no control): 99% | Test J disease control rating ([1]; 200 ppm, 0 = no control): 100% | Test I disease control rating ([2]; 200 ppm, 0 = no control): 100% | Test G disease control rating (Septoria tritici; 200 ppm, 0 = no control): 98% | Test C disease control rating (Botrytis cinerea; 200 ppm, 0 = no control): 98% | Test F disease control rating (Septoria nodorum; 200 ppm, 0 = no control): 82%

COc1cc(F)c(-c2c(Cl)nc(Cl)n2-c2ccc(C)cc2)c(F)c1 [compound 146]
Test D disease control rating (Alternaria solani; [3]): 100% | Test J disease control rating [1, 3]: 100% | Test I disease control rating [2, 3]: 100% | Test G disease control rating (Septoria tritici; [3]): 100% | Test C disease control rating (Botrytis cinerea; [3]): 99% | Test F disease control rating (Septoria nodorum; [3]): 100%

COc1ccc(Cn2cnc(Cl)c2-c2c(F)cccc2F)cc1 [compound 194]
Test D disease control rating (Alternaria solani; 200 ppm, 0 = no control): 95% | Test J disease control rating ([1]; 200 ppm, 0 = no control): 96% | Test I disease control rating ([2]; 200 ppm, 0 = no control): 100% | Test G disease control rating (Septoria tritici; 200 ppm, 0 = no control): 97% | Test C disease control rating (Botrytis cinerea; 200 ppm, 0 = no control): 99% | Test F disease control rating (Septoria nodorum; 200 ppm, 0 = no control): 73%

COc1ccc(-c2c(Cl)nc(C)n2-c2ccc(Cl)cc2)c(F)c1 [compound 113]
Test D disease control rating (Alternaria solani; [3]): 99% | Test J disease control rating [1, 3]: 97% | Test I disease control rating [2, 3]: 97% | Test G disease control rating (Septoria tritici; [3]): 95% | Test C disease control rating (Botrytis cinerea; [3]): 98% | Test F disease control rating (Septoria nodorum; [3]): 97%

Fc1cc(F)c(-n2c(Cl)nc(Br)c2-c2ccc(Cl)cc2)c(F)c1 [compound 233]
Test D disease control rating (Alternaria solani; [4]): 88* % | Test J disease control rating [1, 4]: 94* % | Test I disease control rating [2, 4]: 41* % | Test G disease control rating (Septoria tritici; [4]): 95* % | Test C disease control rating (Botrytis cinerea; [4]): 96* % | Test F disease control rating (Septoria nodorum; [4]): 0* %

Cc1nc(Cl)n(-c2ccc(Cl)c(F)c2)c1-c1ccccn1 [compound 264]
Test D disease control rating (Alternaria solani; 200 ppm, 0 = no control): 88% | Test J disease control rating ([1]; 200 ppm, 0 = no control): 99% | Test I disease control rating ([2]; 200 ppm, 0 = no control): 98% | Test G disease control rating (Septoria tritici; 200 ppm, 0 = no control): 95% | Test C disease control rating (Botrytis cinerea; 200 ppm, 0 = no control): 99% | Test F disease control rating (Septoria nodorum; 200 ppm, 0 = no control): 0%

COc1cc(F)c(-n2cnc(Br)c2-c2ccc(Cl)cc2)c(F)c1 [compound 173]
Test D disease control rating (Alternaria solani; [4]): 0* % | Test J disease control rating [1, 4]: 0* % | Test I disease control rating [2, 4]: 41* % | Test G disease control rating (Septoria tritici; [4]): 90* % | Test C disease control rating (Botrytis cinerea; [4]): 98* % | Test F disease control rating (Septoria nodorum; [4]): 0* %

COc1cc(F)c(-c2c(Cl)ncn2-c2ccc(C)cc2)c(F)c1 [compound 138]
Test D disease control rating (Alternaria solani; [3]): 100% | Test J disease control rating [1, 3]: 100% | Test I disease control rating [2, 3]: 100% | Test G disease control rating (Septoria tritici; [3]): 99% | Test C disease control rating (Botrytis cinerea; [3]): 98% | Test F disease control rating (Septoria nodorum; [3]): 92%

COc1ccc(F)c(-c2c(Br)ncn2-c2ccc(F)cc2)c1F [Compound 450, 4-bromo-5-(2,6-difluoro-3-methoxyphenyl)-1-(4-fluorophenyl)-1H-imidazole]
pest or weed control at 200 ppm (Alternaria solani; Alternaria solani, 168 h, 200 ppm, 0 = no control relative to controls): 100% | pest or weed control at 200 ppm ([1]; Blumeria graminis, 168 h, 200 ppm, 0 = no control relative to controls): 100% | pest or weed control at 200 ppm ([2]; Puccinia recondita, 168 h, 200 ppm, 0 = no control relative to controls): 100% | pest or weed control at 200 ppm (Septoria tritici; Zymoseptoria tritici, 504 h, 200 ppm, 0 = no control relative to controls): 97% | pest or weed control at 200 ppm (Botrytis cinerea; Botrytis cinerea, 120 h, 200 ppm, 0 = no control relative to controls): 97% | pest or weed control at 200 ppm (Septoria nodorum; Parastagonospora nodorum, 264 h, 200 ppm, 0 = no control relative to controls): 99%

COc1cc(F)c(-c2c(Cl)nc(Br)n2-c2ccc(Cl)cc2)c(Cl)c1 [compound 171]
Test D disease control rating (Alternaria solani; 200 ppm, 0 = no control): 100% | Test J disease control rating ([1]; 200 ppm, 0 = no control): 99% | Test I disease control rating ([2]; 200 ppm, 0 = no control): 98% | Test G disease control rating (Septoria tritici; 200 ppm, 0 = no control): 98% | Test C disease control rating (Botrytis cinerea; 200 ppm, 0 = no control): 99% | Test F disease control rating (Septoria nodorum; 200 ppm, 0 = no control): 100%

Fc1cccc(F)c1-c1c(Cl)nc(Br)n1Cc1ccccc1 [compound 95]
Test D disease control rating (Alternaria solani; [3]): 97% | Test J disease control rating [1, 3]: 100% | Test I disease control rating [2, 3]: 100% | Test G disease control rating (Septoria tritici; [3]): 95% | Test C disease control rating (Botrytis cinerea; [3]): 96% | Test F disease control rating (Septoria nodorum; [3]): 95%

COc1ccc(F)c(-c2c(Br)ncn2-c2ccc(Cl)cc2)c1F [compound 449]
Test D disease control rating (Alternaria solani; [3]): 100% | Test J disease control rating [1, 3]: 100% | Test I disease control rating [2, 3]: 99% | Test G disease control rating (Septoria tritici; [3]): 97% | Test C disease control rating (Botrytis cinerea; [3]): 99% | Test F disease control rating (Septoria nodorum; [3]): 99%
